# Where “and” joins values, the source holds several entries; their conditions need not be identical. Equal entries are not always repeated. Where two headings read alike, the source gives them in different places. Marks after values point to notes of the source that are not given here.
# Legend:
# Design in all cases: species or system DBA/2 mice
# Conditions in all cases: mouse, in vivo
# [1] = tested on: oseltamivir-resistant K/2785 virus
# [2] = tested on: oseltamivir-resistant K/2785 virus; remark: listed apart in the source
# [3] = tested on: oseltamivir-resistant K/2785 virus; remark: listed apart in the source
SMILES,MDD ± SD (mean day of death prior to 14 dpi) [1],Survival/total [1],infected mice saved from death [1],MDD ± SD [2],Survival/total [2],Synergism (MacSynergy II) [2],Viral titers in lungs ± SD [3]
"NC(=O)c1nc(F)cnc1O [Favipiravir, 6-fluoro-3-hydroxy-2-pyrazinecarboxamide]",9.8 ± 0.8 days and 10.0 ± 0.0 days and 11 days,2/7 (28.6%) and 4/7 (57.1%) and 6/7 (85.7%)** and 7/7 (100.0%)***,more than 80%,10.6 ± 0.9 days and 10.7 ± 0.6 days and 9.4 ± 0.5 days,5/10 (50.0%)* and 8/10 (80.0%)*** and 3/10 (30.0%),0%,6.95±0.14 log10(PFU/ml/g) and 5.75±0.19 log10(PFU/ml/g) and 7.31±0.01 log10(PFU/ml/g) and 6.88±0.12 log10(PFU/ml/g)
CCC(CC)[C@H](NC(C)=O)[C@@H]1[C@H](O)[C@@H](C(=O)O)C[C@H]1N=C(N)N [Peramivir],10.1 ± 1.1 days and 10.2 ± 0.4 days and 10.5 ± 2.1 days and 11.0 ± 1.4 days,0/7 (0.0%) and 1/7 (14.3%) and 5/7 (71.4%)*,,9.8 ± 1.5 days and 10.1 ± 1.2 days and 10.6 ± 0.9 days,0/10 (00.0%) and 2/10 (20.0%) and 5/10 (50.0%)*,0%,7.34±0.17 log10(PFU/ml/g) and 6.30±0.13 log10(PFU/ml/g) and 7.13±0.09 log10(PFU/ml/g) and 6.29±0.27 log10(PFU/ml/g) and 7.29±0.15 log10(PFU/ml/g) and 6.55±0.14 log10(PFU/ml/g)

# Reference: article PMC4081560 (PLoS ONE, 2014)
